Where “and” joins values, the source holds several entries; their conditions need not be identical. Equal values may be shown once.
Assays:
Adenosine A2A receptor [1] = target: T1, Adenosine A2A receptor (Homo sapiens, UniProt P29274); assay: cAMP assay in 293A cells stably expressing the adenosine A2A receptor (CGS21680 stimulation, HTRF); type: cell-based; set-up: expressed in transfected cells; host or cells: 293A cells (Invitrogen, Cat# R705-07) infected with A2A-expressing lentivirus (custom packaged by Biosettia), puromycin selected; settings: 293A-A2AR cells, 0.1% BSA
Adenosine A2A receptor [2] = target: T1, Adenosine A2A receptor; assay: Adenosine A2A receptor competitive binding assay (Tag-lite HTRF); settings: Tag-lite adenosine A2A receptor ligand binding
Summary of the method: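 Compound displacement of a red fluorescent antagonist tracer (added at 60 nM stock) from donor-labelled, pre-transfected human A2A cells was read by HTRF after 2 h at room temperature; compound dilutions contained 0.6% DMSO.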

[3] = 8 nM CGS, values separated by / are repeat determinations, read-out: cAMP (nM) 0.1% BSA, 8 nM CGS
[4] = 2 h room temperature, values separated by / are repeat determinations
[5] = 1 uM CGS, values separated by / are repeat determinations, read-out: cAMP (nM) 0.1% BSA, 1 uM CGS
[6] = 8 nM CGS, read-out: cAMP (nM) 0.1% BSA, 8 nM CGS
[7] = 1 uM CGS, read-out: cAMP (nM) 0.1% BSA, 1 uM CGS

T1 sequence (P29274 whole entry): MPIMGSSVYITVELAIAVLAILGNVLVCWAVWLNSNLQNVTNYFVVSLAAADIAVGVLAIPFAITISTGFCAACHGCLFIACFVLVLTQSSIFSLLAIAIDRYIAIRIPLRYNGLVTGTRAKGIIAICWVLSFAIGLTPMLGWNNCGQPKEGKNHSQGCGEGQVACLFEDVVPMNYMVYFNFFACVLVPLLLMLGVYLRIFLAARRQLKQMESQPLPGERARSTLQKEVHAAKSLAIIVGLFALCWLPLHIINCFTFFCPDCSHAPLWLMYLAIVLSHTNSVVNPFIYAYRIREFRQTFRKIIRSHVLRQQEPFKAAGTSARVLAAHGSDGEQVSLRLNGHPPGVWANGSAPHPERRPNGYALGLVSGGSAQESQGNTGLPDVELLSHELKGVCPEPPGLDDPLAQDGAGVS

IC50 (Adenosine A2A receptor [1]; [3])	IC50 (Adenosine A2A receptor [2]; [4])	IC50 (Adenosine A2A receptor [1]; [5])	IC50 (Adenosine A2A receptor [1]; [6])	IC50 (Adenosine A2A receptor [2]; HTRF)	IC50 (Adenosine A2A receptor [1]; [7])	Structure (SMILES)
14 nM	44 nM					Cc1cc(-c2c(OCC(=O)NCC(F)(F)F)nc(N)nc2-c2ccc(F)cc2)cc(C(F)F)n1 [Example 161, 2-((2-amino-5-(2-(difluoromethyl)-6-methylpyridin-4-yl)-6-(4-fluorophenyl)pyrimidin-4-yl)oxy)-N-(2,2,2-trifluoroethyl)acetamide]
8.4 nM	21.1 nM					Cc1cc(-c2c(OCC(=O)NCC(C)(F)F)nc(N)nc2-c2ccc(F)cc2)cc(C(F)F)n1 [Example 162, 2-((2-amino-5-(2-(difluoromethyl)-6-methylpyridin-4-yl)-6-(4-fluorophenyl)pyrimidin-4-yl)oxy)-N-(2,2-difluoropropyl)acetamide]
7.1 nM	9.7 nM					Cc1cc(-c2c(OCCCS(C)(=N)=O)nc(N)nc2-c2ccc(F)cc2)cc(C(F)F)n1 (stereo not shown) [Example 169, (3-((2-amino-5-(2-(difluoromethyl)-6-methylpyridin-4-yl)-6-(4-fluorophenyl)pyrimidin-4-yl)oxy)propyl)(imino)(methyl)-λ^6-sulfanone]
1.1 nM and 1.6 nM	1.1 nM (2×) and 2.9 nM	33 nM				Cc1cc(-c2c(OCc3nccn3C3CC3)nc(N)nc2-c2ccc(F)cc2)cc(C(F)F)n1 [Example 170, 4-((1-cyclopropyl-1H-imidazol-2-yl)methoxy)-5-(2-(difluoromethyl)-6-methylpyridin-4-yl)-6-(4-fluorophenyl)pyrimidin-2-amine]
4.1 nM	3.6 nM					Cc1cc(-c2c(OCc3nccn3C3COC3)nc(N)nc2-c2ccc(F)cc2)cc(C(F)F)n1 [Example 171, 5-(2-(difluoromethyl)-6-methylpyridin-4-yl)-4-(4-fluorophenyl)-6-((1-(oxetan-3-yl)-1H-imidazol-2-yl)methoxy)pyrimidin-2-amine]
19 nM	15 nM					Cc1cc(-c2c(OCc3nccn3CC(C)(C)O)nc(N)nc2-c2ccc(F)cc2)cc(C(F)F)n1 [Example 175, 1-(2-(((2-amino-5-(2-(difluoromethyl)-6-methylpyridin-4-yl)-6-(4-fluorophenyl)pyrimidin-4-yl)oxy)methyl)-1H-imidazol-1-yl)-2-methylpropan-2-ol]
7.9 nM	3.6 nM					Cc1cc(-c2c(OCc3nccn3CC(C)C)nc(N)nc2-c2ccc(F)cc2)cc(C(F)F)n1 [Example 176, 5-(2-(difluoromethyl)-6-methylpyridin-4-yl)-4-(4-fluorophenyl)-6-((1-isobutyl-1H-imidazol-2-yl)methoxy)pyrimidin-2-amine]
2.6 nM and 2.9 nM	0.2 nM	271 nM				Cc1cc(-c2c(OCc3nccn3CC3CC3)nc(N)nc2-c2ccc(F)cc2)cc(C(F)F)n1 [Example 177, 4-((1-(cyclopropylmethyl)-1H-imidazol-2-yl)methoxy)-5-(2-(difluoromethyl)-6-methylpyridin-4-yl)-6-(4-fluorophenyl)pyrimidin-2-amine]
1.5 nM	1.4 nM and 3.2 nM					Cc1cc(-c2c(OCc3nncn3C(C)C)nc(N)nc2-c2ccc(F)cc2)cc(C(F)F)n1 [Example 178, 5-(2-(difluoromethyl)-6-methylpyridin-4-yl)-4-(4-fluorophenyl)-6-((4-isopropyl-4H-1,2,4-triazol-3-yl)methoxy)pyrimidin-2-amine]
2.9 nM	0.7 nM and 1 nM	16 nM and 57 nM				Cc1cc(-c2c(OCc3ncnn3C(C)C)nc(N)nc2-c2ccc(F)cc2)cc(C(F)F)n1 [Example 179, 5-(2-(difluoromethyl)-6-methylpyridin-4-yl)-4-(4-fluorophenyl)-6-((1-isopropyl-1H-1,2,4-triazol-5-yl)methoxy)pyrimidin-2-amine]
2.5 nM	15 nM					Cc1cc(-c2c(OCc3cnnn3C(C)C)nc(N)nc2-c2ccc(F)cc2)cc(C(F)F)n1 [Example 180, 5-(2-(difluoromethyl)-6-methylpyridin-4-yl)-4-(4-fluorophenyl)-6-((1-isopropyl-1H-1,2,3-triazol-5-yl)methoxy)pyrimidin-2-amine]
12 nM	46 nM					Cc1cc(-c2c(OCc3n[nH]cc3C(C)C)nc(N)nc2-c2ccc(F)cc2)cc(C(F)F)n1 [Example 183, 5-(2-(difluoromethyl)-6-methylpyridin-4-yl)-4-(4-fluorophenyl)-6-((4-isopropyl-1H-pyrazol-3-yl)methoxy)pyrimidin-2-amine]
8.8 nM	33 nM					Cc1cc(-c2c(OCc3nn(C)cc3C(C)C)nc(N)nc2-c2ccc(F)cc2)cc(C(F)F)n1 [Example 184, 5-(2-(difluoromethyl)-6-methylpyridin-4-yl)-4-(4-fluorophenyl)-6-((4-isopropyl-1-methyl-1H-pyrazol-3-yl)methoxy)pyrimidin-2-amine]
	7.1 nM	6 nM and 25 nM				Cc1cc(-c2c(OCc3nnn(C(C)C)n3)nc(N)nc2-c2ccc(F)cc2)cc(C(F)F)n1 [Example 185, 5-(2-(difluoromethyl)-6-methylpyridin-4-yl)-4-(4-fluorophenyl)-6-((2-isopropyl-2H-tetrazol-5-yl)methoxy)pyrimidin-2-amine]
4.1 nM	2.6 nM	10500 nM				Cc1cc(-c2c(OCc3cccc(=O)n3C(C)C)nc(N)nc2-c2ccc(F)cc2)cc(C(F)F)n1 [Example 186, 6-(((2-amino-5-(2-(difluoromethyl)-6-methylpyridin-4-yl)-6-(4-fluorophenyl)pyrimidin-4-yl)oxy)methyl)-1-isopropylpyridin-2(1H)-one]
12 nM	39 nM					Cc1cc(-c2c(OCc3ncc(C#N)n3C(C)C)nc(N)nc2-c2ccc(F)cc2)cc(C(F)F)n1 [Example 191, 2-(((2-amino-5-(2-(difluoromethyl)-6-methylpyridin-4-yl)-6-(4-fluorophenyl)pyrimidin-4-yl)oxy)methyl)-1-isopropyl-1H-imidazole-5-carbonitrile]
9.7 nM	26 nM					Cc1cc(-c2c(OCc3ncc(S(C)(=O)=O)n3C(C)C)nc(N)nc2-c2ccc(F)cc2)cc(C(F)F)n1 [Example 192, 5-(2-(difluoromethyl)-6-methylpyridin-4-yl)-4-(4-fluorophenyl)-6-((1-isopropyl-5-(methylsulfonyl)-1H-imidazol-2-yl)methoxy)pyrimidin-2-amine]
1.5 nM	0.6 nM and 1.7 nM	151 nM				Cc1cc(-c2c(OCc3nccn3C3CCC3)nc(N)nc2-c2ccc(F)cc2)cc(C(F)F)n1 [Example 194, 4-((1-cyclobutyl-1H-imidazol-2-yl)methoxy)-5-(2-(difluoromethyl)-6-methylpyridin-4-yl)-6-(4-fluorophenyl)pyrimidin-2-amine]
			6.3 nM	19.1 nM		Cc1cc(-c2c(OCC3CCC(C)(O)CC3)nc(N)nc2-c2ccc(F)cc2)cc(C(F)F)n1 (stereo not shown) [Example 197, 4-(((2-amino-5-(2-(difluoromethyl)-6-methylpyridin-4-yl)-6-(4-fluorophenyl)pyrimidin-4-yl)oxy)methyl)-1-methylcyclohexan-1-ol]
			10 nM	14.9 nM		CCN(CC(C)O)C(=O)COc1nc(N)nc(-c2ccc(F)cc2)c1-c1cc(C)nc(C(F)F)c1 (stereo not shown) [Example 198, 2-((2-amino-5-(2-(difluoromethyl)-6-methylpyridin-4-yl)-6-(4-fluorophenyl)pyrimidin-4-yl)oxy)-N-ethyl-N-(2-hydroxypropyl)acetamide]
				7.2 nM	148 nM	Cc1cc(-c2c(OCC(CO)N(C)c3ccccn3)nc(N)nc2-c2ccc(F)cc2)cc(C(F)F)n1 (stereo not shown) [Example 199, 3-((2-amino-5-(2-(difluoromethyl)-6-methylpyridin-4-yl)-6-(4-fluorophenyl)pyrimidin-4-yl)oxy)-2-(methyl(pyridin-2-yl)amino)propan-1-ol]
			4.2 nM and 3.5 nM	1 nM and 6.5 nM		Cc1cc(-c2c(OCC(O)CN(C)c3ccccn3)nc(N)nc2-c2ccc(F)cc2)cc(C(F)F)n1 (stereo not shown) [Example 201, 1-((2-amino-5-(2-(difluoromethyl)-6-methylpyridin-4-yl)-6-(4-fluorophenyl)pyrimidin-4-yl)oxy)-3-(methyl(pyridin-2-yl)amino)propan-2-ol]
			16 nM	3.5 nM		CCc1nnn(CC)c1COc1nc(N)nc(-c2ccc(F)cc2)c1-c1cc(C)nc(C(F)F)c1 [Example 202, 4-((1,4-diethyl-1H-1,2,3-triazol-5-yl)methoxy)-5-(2-(difluoromethyl)-6-methylpyridin-4-yl)-6-(4-fluorophenyl)pyrimidin-2-amine]
			9.6 nM	3 nM		Cc1cc(-c2c(OCc3nc(C#N)cn3C(C)C)nc(N)nc2-c2ccc(F)cc2)cc(C(F)F)n1 [Example 203]
			29 nM	12 nM		Cc1cc(-c2c(OCc3nccn3C(C)C(=O)O)nc(N)nc2-c2ccc(F)cc2)cc(C(F)F)n1 (stereo not shown) [Example 205, 2-(2-(((2-amino-5-(2-(difluoromethyl)-6-methylpyridin-4-yl)-6-(4-fluorophenyl)pyrimidin-4-yl)oxy)methyl)-1H-imidazol-1-yl)propanoic acid]
			10 nM	9.2 nM	4660 nM	Cc1cc(-c2c(O)nc(N)nc2-c2ccc(F)cc2)cc(C(F)F)n1 [Example 206, 2-amino-5-(2-(difluoromethyl)-6-methylpyridin-4-yl)-6-(4-fluorophenyl)pyrimidin-4-ol]
